Consider seven molecules from patent US20250361307A1, “COMBINATION THERAPIES FOR TREATING HYPERPROLIFERATIVE DISORDERS” (X4 Pharmaceuticals, Inc., priority 2022, published 2025).

One test relates to human WM cells. Particulars: mouse, in vivo; cited from earlier work.
Test [1] deals with MWCL-1 cells. The test can be described thus: IL-6-mediated IgM secretion in MWCL-1 cells (ELISA). As to conditions: exogenous IL-6 (FIG. 1F). In kind it is cell-based. The source says:
(§1) The IgM levels were quantitated using a human IgM Enzyme-linked immunosorbent assay (ELISA) kit (Abcam, #ab214568) according to the manufacturer's instructions. IL-6 levels were quantitated using an IL-6 ELISA MAX™ kit (BioLegend, #430515) per manufacturer's recommendations. For all ELISA kits, plates were developed with 3,3′,5,5′-tetramethylbenzidine (TMB) development solution or a biotinylated antihuman IL-6 detection antibody/avidin horseradish peroxidase (HRP) solution. The reaction was stopped with the stop solution, and absorbance was read at 450 nm with a microplate reader (Synergy™ HT, BioTek Instruments).
In general terms: An ELISA detects its analyte on a solid surface through an enzyme-linked reagent.

Test [2] relates to CXCR4 cell surface expression in MWCL-1 cells. The test can be described thus: CXCR4 cell surface expression in MWCL-1 cells (flow cytometry). It counts as cell-based. Particulars: MWCL-1 cocultured with HS-27A BMSCs (FIG. 2B). On the procedure: Flow experiments were performed with the CytoFLEX S Flow Cytometer (Beckman Coulter). Samples were analyzed using FCS Express Software (De Novo Software).
[…] Cells were stained with CXCR4 antibody (BD Pharmigen, #555976) and measured by flow cytometry.
A general note: A flow cytometer gives signals particle by particle.

For test [3], the system named is MWCL-1 cells. In words: Apoptosis of MWCL-1 cells in coculture with HS-27A BMSCs. It counts as cell-based. As to conditions: with BMSC (HS-27a) (FIG. 13A). On the procedure: (§2) BMSCs were cultured in 96-, 48-, or 24-well plates until 90% confluence. MWCL-1 cells (density≈2×10^5 cells/mL) were pretreated with indicated concentration of mavorixafor together with indicated concentrations of B-cell-targeted inhibitors in medium containing 4% FBS for 1 hour and transferred to the BMSC monolayer. Cells were coincubated for 48 or 72 hours followed by measurement of cell viability, apoptosis, IgM, and IL-6 release.
(§3) Cells were washed with PBS, resuspended in Annexin V binding buffer (BioLegend, #422201), and stained with Alexa Fluor® 647 Annexin V (BioLegend, #640943), propidium iodide (BD Pharmingen, #51-66211E), and CD45 antibody (BioLegend, #368502) for 15 minutes at room temperature and analyzed by flow cytometry.

The next test deals with WM mouse xenograft. As to conditions: cited from earlier work.
Test [4] deals with MWCL-1 cells. In words: Apoptosis of MWCL-1 cells in monoculture (Annexin V flow cytometry). In kind it is cell-based. On the procedure:
BMSCs were cultured in 96-, 48-, or 24-well plates until 90% confluence. […] Cells were coincubated for 48 or 72 hours followed by measurement of cell viability, apoptosis, IgM, and IL-6 release.
as §3

In test [5] the test system is MWCL-1 cells. In words: Sensitivity of MWCL-1 cells in coculture with HS-5 BMSCs (apoptosis, IgM). Particulars: HS-5 BMSC coculture vs monoculture (FIG. 10A-D). In kind it is cell-based. On the procedure:
as §2, §1, §3

The target in another test is BCL-2 (Homo sapiens, UniProt P10415). Particulars: cited from earlier work.
The target of the next test is BCL-XL (Homo sapiens, UniProt Q07817). Particulars: cited from earlier work.
A further test addresses T1, BCL-w (Homo sapiens, UniProt Q92843).
T1 sequence (Q92843 1-193): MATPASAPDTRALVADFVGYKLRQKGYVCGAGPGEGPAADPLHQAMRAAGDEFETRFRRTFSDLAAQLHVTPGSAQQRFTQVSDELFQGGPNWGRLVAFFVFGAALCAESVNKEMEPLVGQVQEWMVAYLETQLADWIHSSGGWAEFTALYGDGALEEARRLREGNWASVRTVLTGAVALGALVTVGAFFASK
Particulars: cited from earlier work.

Chain of BCL-2 (P10415 whole entry): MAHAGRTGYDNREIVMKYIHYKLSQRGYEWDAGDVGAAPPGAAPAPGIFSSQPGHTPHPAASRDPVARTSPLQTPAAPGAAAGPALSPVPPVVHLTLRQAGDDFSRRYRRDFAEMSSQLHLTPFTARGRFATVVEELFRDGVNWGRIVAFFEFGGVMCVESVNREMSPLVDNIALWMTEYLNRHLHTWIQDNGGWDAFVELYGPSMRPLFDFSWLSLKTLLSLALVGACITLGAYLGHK
Chain of BCL-XL (Q07817 whole entry): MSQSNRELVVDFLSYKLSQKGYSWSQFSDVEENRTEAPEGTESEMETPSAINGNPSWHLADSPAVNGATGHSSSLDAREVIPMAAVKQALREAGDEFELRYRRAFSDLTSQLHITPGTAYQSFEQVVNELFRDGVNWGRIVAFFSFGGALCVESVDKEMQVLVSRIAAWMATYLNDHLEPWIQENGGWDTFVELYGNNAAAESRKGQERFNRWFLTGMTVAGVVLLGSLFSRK

With “ulocuplumab: monoclonal anti-CXCR4 antibody”, the “tumor infiltration in BM, spleen, and lymph nodes” value in the test on human WM cells is listed as “reduced”.
`CCc1cc(O)c(F)cc1-c1ccc2c(-c3nc4c([nH]3)CCN(C(=O)c3cnc(N5CCCCC5)cn3)C4)n[nH]c2c1` [PF-06263276]: the “IL-6-mediated IgM secretion” value in the test on MWCL-1 cells [1] is on record as “inhibited”.
Consider “Tocilizumab: IL-6R antibody tocilizumab (Actemra, Genentech)”, for which, in the test on MWCL-1 cells [1], the “IL-6-mediated IgM secretion” value was “inhibited”. Besides, the “increase of CXCR4 surface expression by HS-27A BMSC coculture” value in test [2] is “inhibited”. The “% apoptotic cells” value with MWCL-1 cells [3] is listed as “neither Ibrutinib nor Tocilizumab as a single therapy increased”. In the test on WM mouse xenograft, the IgM secretion result is given as “reduces” and the tumor growth entry is given as “reduces”.
On to `C=CC(=O)N1CCC[C@@H](n2nc(-c3ccc(Oc4ccccc4)cc3)c3c(N)ncnc32)C1` [Ibrutinib, 1-[(3R)-3-[4-amino-3-(4-phenoxyphenyl)-1Hpyrazolo[3,4-d]pyrimidin-1-yl]-1-piperidinyl]-2-propen-1-one, reference compound], for which the figures for the “% apoptotic cells” value in the test with MWCL-1 cells [4] (absence of BMSC (FIG. 13A)) and in the test on MWCL-1 cells [3] were “approximately 60%” and “neither Ibrutinib nor Tocilizumab as a single therapy increased”, respectively. Also, the “sensitivity of MWCL-1 cells to the drug in HS-5 BMSC coculture” value in the test on MWCL-1 cells [5] is recorded as “reduced the sensitivity”.
As to `CN(C)CC[C@H](CSc1ccccc1)Nc1ccc(S(=O)(=O)NC(=O)c2ccc(N3CCN(Cc4ccccc4-c4ccc(Cl)cc4)CC3)cc2)cc1[N+](=O)[O-]` [ABT-737], at BCL-2, the “binding affinity to BCL-2” value is reported as below 1 nmol/L. Further, at BCL-XL, the “binding affinity to BCL-XL” value is below 1 nmol/L. Also, the “binding affinity to BCL-w” value at BCL-w is below 1 nmol/L.
Regarding `CN(CC(=O)N(Cc1ccc(C2CCCCC2)cc1)c1ccc(C(=O)O)c(O)c1)S(=O)(=O)c1c(F)c(F)c(F)c(F)c1F` [BP-1-102], the “IL-6-mediated IgM secretion” value in the test with MWCL-1 cells [1] is recorded as “inhibited”.
Regarding `CC(C)C[C@H](NC(=O)CNC(=O)c1cc(Cl)ccc1Cl)B(O)O` [Ixazomib, reference compound], the “killing / apoptosis of MWCL-1 tumor cells” value in the test on MWCL-1 cells [4] (absence of bone marrow stroma, 72 hours (FIG. 15)) is “Kills”.
